For 23 molecules, MIC results are on record in ChEMBL document CHEMBL1649246, “Complete nucleotide sequences of plasmids pEK204, pEK499, and pEK516, encoding CTX-M enzymes in three major Escherichia coli lineages from the United Kingdom, all belonging to the international O25:H4-ST131 clone” (2009).

≈ marks a conversion by molar mass, not a printed value.

Holding throughout (type): functional
The test system of assay [1] is Escherichia coli. In words: Antimicrobial activity against Escherichia coli J53.
For assay [2], the system named is Escherichia coli. In words: Antimicrobial activity against Escherichia coli DH5[alpha].
Assay [3] concerns Escherichia coli. Nature of the assay: Antimicrobial activity against Escherichia coli J53 harboring pEK499 plasmid encoding CTX-M extended-spectrum beta-lactamases.
Assay [4] relates to Escherichia coli. In words: Antimicrobial activity against Escherichia coli DH5[alpha] harboring pEK516 plasmid encoding CTX-M extended-spectrum beta-lactamases.
Assay [5] has as its system Escherichia coli. In words: Antimicrobial activity against Escherichia coli DH5[alpha] harboring pEK516 plasmid encoding CTX-M extended-spectrum beta-lactamases in presence of beta-lactamase inhibitor clavulanic acid.
Assay [6] concerns Escherichia coli. Nature of the assay: Antimicrobial activity against Escherichia coli J53 harboring pEK499 plasmid encoding CTX-M extended-spectrum beta-lactamases in presence of beta-lactamase inhibitor clavulanic acid.
For assay [7], the system named is Escherichia coli. Nature of the assay: Antimicrobial activity against Escherichia coli J53 harboring pEK204 plasmid encoding CTX-M extended-spectrum beta-lactamases in presence of beta-lactamase inhibitor clavulanic acid.
In assay [8] the test system is Escherichia coli. In words: Antimicrobial activity against Escherichia coli DH5[alpha] in presence of beta-lactamase inhibitor clavulanic acid.
The test system of assay [9] is Escherichia coli. In words: Antimicrobial activity against Escherichia coli J53 in presence of beta-lactamase inhibitor clavulanic acid.
Assay [10] has as its system Escherichia coli. In words: Antimicrobial activity against Escherichia coli J53 harboring pEK204 plasmid encoding CTX-M extended-spectrum beta-lactamases.
Assay [11] has as its system Escherichia coli. Nature of the assay: Antimicrobial activity against Escherichia coli DH5[alpha] in presence of beta-lactamase inhibitor Tazobactam.
For assay [12], the system named is Escherichia coli. Nature of the assay: Antimicrobial activity against Escherichia coli J53 harboring pEK204 plasmid encoding CTX-M extended-spectrum beta-lactamases in presence of beta-lactamase inhibitor Tazobactam.
The test system of assay [13] is Escherichia coli. In words: Antimicrobial activity against Escherichia coli J53 harboring pEK499 plasmid encoding CTX-M extended-spectrum beta-lactamases in presence of beta-lactamase inhibitor Tazobactam.
The subject of assay [14] is Escherichia coli. In words: Antimicrobial activity against Escherichia coli J53 in presence of beta-lactamase inhibitor Tazobactam.
Assay [15] has as its system Escherichia coli. In words: Antimicrobial activity against Escherichia coli DH5[alpha] harboring pEK516 plasmid encoding CTX-M extended-spectrum beta-lactamases in presence of beta-lactamase inhibitor Tazobactam.

As a reminder, the MIC is the lowest concentration found to suppress growth. On to `C[C@@H](O)[C@H]1C(=O)N2C(C(=O)O)=C(S[C@@H]3CN[C@H](C(=O)Nc4cccc(C(=O)O)c4)C3)[C@H](C)[C@H]12`, for which the MIC in assay [1] and in [2] was no more than 0.125 µg/mL in each case.
In the case of `NCC[C@H](O)C(=O)N[C@@H]1C[C@H](N)[C@@H](O[C@H]2O[C@H](CN)[C@@H](O)[C@H](O)[C@H]2O)[C@H](O)[C@H]1O[C@H]1O[C@H](CO)[C@@H](O)[C@H](N)[C@H]1O` [AMIKACIN], the MIC is no more than 0.5 µg/mL in assay [1], 4 µg/mL (≈ 6.83 µM) in assay [3], 1 µg/mL (≈ 1.71 µM) in assay [2] and 2 µg/mL (≈ 3.42 µM) in assay [4].
With `CC1(C)S[C@@H]2[C@H](NC(=O)[C@H](N)c3ccc(O)cc3)C(=O)N2[C@H]1C(=O)O` [AMOXICILLIN], the MIC came to 16 µg/mL in [5]; 32 µg/mL in [6]; 16 µg/mL in assay [7]; 8 µg/mL in assay [8]; 8 µg/mL in [9].
Turning to `CC1(C)S[C@@H]2[C@H](NC(=O)[C@H](N)c3ccccc3)C(=O)N2[C@H]1C(=O)O` [AMPICILLIN], the MIC in [1] was 8 µg/mL (≈ 22.9 µM); in assay [3], greater than 64 µg/mL; in [2] it was 16 µg/mL (≈ 45.8 µM); in assay [10] it was greater than 64 µg/mL; in assay [4] it was greater than 64 µg/mL.
As for `C[C@H]1[C@H](NC(=O)/C(=N\OC(C)(C)C(=O)O)c2csc(N)n2)C(=O)N1S(=O)(=O)O` [AZTREONAM], the MIC in assay [3] is greater than 64 µg/mL; in assay [2], 0.25 µg/mL (≈ 0.574 µM); in [10], 8 µg/mL (≈ 18.4 µM); in assay [4] it was 32 µg/mL (≈ 73.5 µM).
Take `CO/N=C(\C(=O)N[C@@H]1C(=O)N2C(C(=O)O)=C(COC(C)=O)CS[C@H]12)c1csc(N)n1` [CEFOTAXIME]: the MIC in [6] was 0.125 µg/mL; in [1], no more than 0.125 µg/mL; in [3] it was 256 µg/mL (≈ 562 µM); in assay [2], 0.25 µg/mL (≈ 0.549 µM); in assay [7], 0.125 µg/mL; in assay [10], 64 µg/mL (≈ 141 µM). Besides, the MIC is no more than 0.06 µg/mL in assay [8], no more than 0.06 µg/mL in assay [9] and 128 µg/mL (≈ 281 µM) in assay [4].
In the case of `CO[C@@]1(NC(=O)Cc2cccs2)C(=O)N2C(C(=O)O)=C(COC(N)=O)CS[C@@H]21` [CEFOXITIN], the MIC in assay [1], in [3], in assay [2], in [10] and in assay [4] was 8 µg/mL (≈ 18.7 µM) throughout.
For `CO/N=C(\C(=O)N[C@@H]1C(=O)N2C(C(=O)[O-])=C(C[n+]3cccc4c3CCC4)CS[C@H]12)c1csc(N)n1` [CEFPIROME], the MIC in assay [1] was no more than 0.125 µg/mL; in assay [3], greater than 64 µg/mL; in assay [2] it was no more than 0.125 µg/mL; in assay [10], 16 µg/mL (≈ 31.1 µM); in assay [8], no more than 0.06 µg/mL; in assay [9], no more than 0.06 µg/mL. The molecule also registered an MIC in assay [4] of 64 µg/mL (≈ 124 µM).
On to `CC(C)(O/N=C(\C(=O)N[C@@H]1C(=O)N2C(C(=O)[O-])=C(C[n+]3ccccc3)CS[C@H]12)c1csc(N)n1)C(=O)O` [CEFTAZIDIME], for which the MIC was 0.25 µg/mL in [5]; 0.5 µg/mL in assay [6]; 0.25 µg/mL (≈ 0.457 µM) in assay [1]; 64 µg/mL (≈ 117 µM) in [3]; 0.25 µg/mL (≈ 0.457 µM) in assay [2]; 0.25 µg/mL in [7]. For the same molecule, the MIC was determined as 2 µg/mL (≈ 3.66 µM) in [10], 0.25 µg/mL in [8], 0.25 µg/mL in assay [9] and 16 µg/mL (≈ 29.3 µM) in assay [4].
As for `O=C(N[C@H](CO)[C@H](O)c1ccc([N+](=O)[O-])cc1)C(Cl)Cl` [CHLORAMPHENICOL], the MIC in assay [1], in assay [3], in [2], in assay [10] and in assay [4] was 2 µg/mL (≈ 6.19 µM) throughout.
As to `O=C(O)c1cn(C2CC2)c2cc(N3CCNCC3)c(F)cc2c1=O` [CIPROFLOXACIN], the MIC in assay [1] and in [2] was no more than 0.125 µg/mL in each case.
Regarding `C[C@@H](O)[C@H]1C(=O)N2C(C(=O)O)=C(SCCNC=N)C[C@H]12` [IMIPENEM ANHYDROUS], the results for the MIC in assay [1] and in assay [2] were 0.25 µg/mL (≈ 0.835 µM) and 0.5 µg/mL (≈ 1.67 µM), respectively.
For the molecule `C[C@@H](O)[C@H]1C(=O)N2C(C(=O)O)=C(S[C@@H]3CN[C@H](C(=O)N(C)C)C3)[C@H](C)[C@H]12` [MEROPENEM], the MIC in assay [1] and in assay [2] was no more than 0.06 µg/mL throughout.
With `CN(C)c1ccc(O)c2c1C[C@H]1C[C@H]3[C@H](N(C)C)C(O)=C(C(N)=O)C(=O)[C@@]3(O)C(O)=C1C2=O` [MINOCYCLINE], the MIC in [1] was 0.25 µg/mL (≈ 0.546 µM); in assay [3], 2 µg/mL (≈ 4.37 µM); in [2], 0.25 µg/mL (≈ 0.546 µM); in [10], 0.25 µg/mL (≈ 0.546 µM); in assay [4], 4 µg/mL (≈ 8.74 µM).
`CCN1CCN(C(=O)N[C@@H](C(=O)N[C@@H]2C(=O)N3[C@@H]2SC(C)(C)[C@@H]3C(=O)O)c2ccccc2)C(=O)C1=O` [PIPERACILLIN]: the MIC was 4 µg/mL in [11]; 4 µg/mL in assay [12]; 4 µg/mL (≈ 7.73 µM) in [1]; 16 µg/mL in assay [13]; greater than 64 µg/mL in [3]; 4 µg/mL (≈ 7.73 µM) in assay [2]. The MIC in assay [10] was greater than 64 µg/mL; in assay [14], 4 µg/mL; in assay [15], 4 µg/mL; in assay [4], 64 µg/mL (≈ 124 µM).
Consider `CN[C@@H]1[C@H](O[C@H]2[C@H](O[C@H]3[C@H](O)[C@@H](O)[C@H](N=C(N)N)[C@@H](O)[C@@H]3N=C(N)N)O[C@@H](C)[C@]2(O)C=O)O[C@@H](CO)[C@H](O)[C@H]1O` [STREPTOMYCIN], for which the MIC in assay [1] was 1 µg/mL (≈ 1.72 µM); in assay [3], 32 µg/mL (≈ 55 µM); in assay [2], 1 µg/mL (≈ 1.72 µM); in [10], 2 µg/mL (≈ 3.44 µM); in assay [4] it was 0.5 µg/mL (≈ 0.86 µM).
Turning to `Cc1cc(NS(=O)(=O)c2ccc(N)cc2)no1` [SULFAMETHOXAZOLE], the MIC was 16 µg/mL (≈ 63.2 µM) in assay [1]; greater than 1020 µg/mL in assay [3]; 2 µg/mL (≈ 7.9 µM) in assay [2]; 16 µg/mL (≈ 63.2 µM) in [10]; 2 µg/mL (≈ 7.9 µM) in assay [4].
On to `CN(C)[C@@H]1C(O)=C(C(N)=O)C(=O)[C@@]2(O)C(O)=C3C(=O)c4c(O)cccc4[C@@](C)(O)[C@H]3C[C@@H]12` [TETRACYCLINE], for which the MIC in assay [1] is 1 µg/mL (≈ 2.25 µM); in [3], 32 µg/mL (≈ 72 µM); in assay [2], 1 µg/mL (≈ 2.25 µM); in [10] it was 1 µg/mL (≈ 2.25 µM); in assay [4], 32 µg/mL (≈ 72 µM).
In the case of `CN(C)c1cc(NC(=O)CNC(C)(C)C)c(O)c2c1C[C@H]1C[C@H]3[C@H](N(C)C)C(O)=C(C(N)=O)C(=O)[C@@]3(O)C(O)=C1C2=O` [TIGECYCLINE], the MIC in assay [1] and in [2] was no more than 0.25 µg/mL each time.
Turning to `NC[C@H]1O[C@H](O[C@H]2[C@H](O)[C@@H](O[C@H]3O[C@H](CO)[C@@H](O)[C@H](N)[C@H]3O)[C@H](N)C[C@@H]2N)[C@H](N)C[C@@H]1O` [TOBRAMYCIN], the MIC in assay [1] came to 0.25 µg/mL (≈ 0.535 µM); in assay [3], 8 µg/mL (≈ 17.1 µM); in [2], 0.5 µg/mL (≈ 1.07 µM); in assay [10] it was 0.5 µg/mL (≈ 1.07 µM); in assay [4], 8 µg/mL (≈ 17.1 µM).
Turning to `COc1cc(Cc2cnc(N)nc2N)cc(OC)c1OC` [TRIMETHOPRIM], the MIC in assay [1] is 0.06 µg/mL (≈ 0.207 µM); in [3], greater than 32 µg/mL; in [2], 0.06 µg/mL (≈ 0.207 µM); in assay [10], 0.06 µg/mL (≈ 0.207 µM); in assay [4], 0.03 µg/mL (≈ 0.103 µM).
Turning to COLISTIN, the MIC in assay [1], in assay [3], in assay [2], in assay [10] and in assay [4] was less than 0.5 µg/mL throughout.
Turning to GENTAMICIN, the minimum inhibitory concentration (MIC) in [1] is 0.25 µg/mL; in assay [3], 0.25 µg/mL; in [10], 0.25 µg/mL; in assay [4] it was 8 µg/mL.
